According to PubChem BioAssay (NCI):
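Method: 48-hour compound exposure of cells in 96-well plates, five concentrations, linear interpolation of endpoints. GI50 is the concentration that inhibits growth by half. TGI denotes the concentration required for complete inhibition of growth.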

Assays:
Experiment in all cases: inhibition of tumour cell growth, NCI panel, 48 h
CAKI-1 renal = test system: CAKI-1 renal
SR leukemia = test system: SR leukemia
HL-60(TB) leukemia = test system: HL-60(TB) leukemia
UACC-62 melanoma = test system: UACC-62 melanoma
HCT-116 colon = test system: HCT-116 colon
DU-145 prostate = test system: DU-145 prostate
NCI-H522 lung = test system: NCI-H522 lung
NCI-H460 lung = test system: NCI-H460 lung
OVCAR-8 ovarian = test system: OVCAR-8 ovarian
HOP-92 NSCLC = test system: HOP-92 NSCLC

SMILES	TGI (CAKI-1 renal)	TGI (SR leukemia)	TGI (HL-60(TB) leukemia)	TGI (UACC-62 melanoma)	TGI (HCT-116 colon)	TGI (DU-145 prostate)	TGI (NCI-H522 lung)	TGI (NCI-H460 lung)	TGI (OVCAR-8 ovarian)	TGI (HOP-92 NSCLC)	GI50 (DU-145 prostate)	GI50 (HOP-92 NSCLC)
C#CCNC(Cc1cnc[nH]1)C(=O)O (centres undefined)	> 100 µM	> 100 µM	> 100 µM	> 100 µM	> 100 µM	> 100 µM	> 100 µM	> 100 µM	> 100 µM	> 100 µM	–	–
Cc1cc2ccccc2n1CC(=O)NCC(C)C	> 100 µM	> 100 µM	> 100 µM	> 100 µM	> 100 µM	> 100 µM	> 100 µM	> 100 µM	> 100 µM	> 100 µM	–	–
C=CCC(CNC(=O)OCc1ccccc1)O[Si](C)(C)C(C)(C)C (centres undefined)	> 100 µM	46.4 µM	51.9 µM	> 100 µM	73.7 µM	> 100 µM	64.8 µM	> 100 µM	> 100 µM	> 100 µM	–	–
CC(=O)O[C@H]1C#C/C=C\C#CC[C@@H]2C(=O)N(C(=O)OC(C)(C)C)[C@@H]12	> 54 µM	> 100 µM	25.6 µM	> 100 µM	> 89.4 µM	54.8 µM	47.8 µM	38.7 µM	> 82.3 µM	96.8 µM	–	–
CC(CCC(=O)O)[C@H]1CCC2[C@H]3C(CC[C@@]21C)[C@@]1(C)CCC(O)C[C@H]1C[C@@H]3O (some centres undefined)	> 100 µM	> 100 µM	> 100 µM	> 100 µM	> 100 µM	> 100 µM	> 100 µM	> 100 µM	> 100 µM	> 100 µM	–	–
CN(CCc1ccc(Cl)c(Cl)c1)[C@H]1CCCC[C@H]1N1CCCC1	> 100 µM	> 100 µM	> 100 µM	> 100 µM	> 100 µM	> 100 µM	> 100 µM	–	> 100 µM	> 100 µM	–	–
CCc1nnc(-n2c(C)nc3cc(Cl)ccc3c2=O)s1	> 100 µM	> 100 µM	> 100 µM	61.7 µM	> 100 µM	> 100 µM	75.4 µM	> 100 µM	> 100 µM	99.2 µM	–	–
O=C1/C(=C/c2ccccc2)CCc2ccc(Cl)nc21	10.3 µM	9.01 µM	0.705 µM	22.8 µM	7 µM	24.4 µM	10.4 µM	> 64 µM	> 100 µM	38.8 µM	–	–
O=C(c1ccccc1)c1c(C(F)(F)F)n([O-])c2ccccc2[n+]1=O	1.94 µM	0.413 µM	1.42 µM	3.52 µM	> 100 µM	4.54 µM	2 µM	5.72 µM	3.3 µM	1.2 µM	–	–
O=C(N/N=C\c1cccc2ccccc12)Nc1ccc([N+](=O)[O-])cc1	> 100 µM	> 100 µM	> 100 µM	> 68.5 µM	> 53.7 µM	> 60.7 µM	> 53.9 µM	> 76.6 µM	> 53.5 µM	26.2 µM	–	–
CC(=O)N(CN1C(=O)CCC1C(=O)O)c1ccccc1 (centres undefined)	> 100 µM	> 100 µM	> 100 µM	> 100 µM	> 100 µM	> 100 µM	> 100 µM	> 100 µM	> 100 µM	> 100 µM	–	–
CC[C@]12C=CCN3CCC4(c5cc(N=Nc6ccccc6)c(OC)cc5N(C)[C@H]4[C@@](O)(C(=O)OC)[C@@H]1OC(C)=O)[C@@H]32 (some centres undefined)	69.8 µM	45.5 µM	38.1 µM	29.4 µM	31.2 µM	34.9 µM	33 µM	33.5 µM	42.2 µM	30.2 µM	–	–
N#CC1=C(N)C(C#N)(C#N)C(c2ccc(F)cc2)C=C1C1CC1 (centres undefined)	28.2 µM	12.9 µM	34.8 µM	21.5 µM	15.8 µM	25.6 µM	14.1 µM	17.6 µM	21.5 µM	27 µM	–	–
Cc1csc2c1C(=O)c1ccsc1C2=O	34 µM	> 45 µM	> 30.1 µM	3.07 µM	4.7 µM	3.29 µM	5.16 µM	3.46 µM	11.3 µM	12.5 µM	–	–
COc1ccc(C(O)c2ccc3c(c2)OCO3)cc1 (centres undefined)	> 100 µM	> 100 µM	> 100 µM	> 100 µM	> 100 µM	> 100 µM	> 100 µM	> 100 µM	> 100 µM	> 100 µM	–	–
N#CCCC1C(C#N)C2CC1C1C3C=CC(C3)C21 (centres undefined)	> 100 µM	> 100 µM	> 100 µM	> 100 µM	> 100 µM	> 100 µM	> 100 µM	–	> 100 µM	> 100 µM	–	–
Nc1ccc2c(c1)C(=O)c1ccccc1-2	> 100 µM	> 100 µM	> 100 µM	> 100 µM	> 100 µM	> 100 µM	> 100 µM	> 100 µM	> 100 µM	91 µM	–	–
CC(=O)/C=C/C=C(\C)CC/C=C(\C)CC(C)C	> 100 µM	39.1 µM	33.4 µM	49.2 µM	62.8 µM	> 100 µM	42.6 µM	> 100 µM	65.8 µM	27.4 µM	–	–
O=C(C1=C(C(=O)c2ccccc2)SC2(S1)C(C(=O)c1ccccc1)=C(C(=O)c1ccccc1)Sc1c2ssc1=O)c1ccccc1	> 100 µM	> 100 µM	69.8 µM	44.9 µM	> 100 µM	> 100 µM	85.5 µM	> 100 µM	> 100 µM	> 100 µM	–	–
Cc1nnc2cc(C(=O)O)c3ccccc3n2c1=O	> 10 µM	> 10 µM	> 10 µM	> 10 µM	> 10 µM	> 10 µM	> 10 µM	> 10 µM	> 10 µM	> 10 µM	–	–
O=C1NC(=S)N/C1=C/c1ccccc1O	> 100 µM	> 100 µM	> 100 µM	> 100 µM	> 100 µM	> 100 µM	> 100 µM	–	> 100 µM	> 100 µM	–	–
Cc1cc(S(=O)(=O)Nc2nnc3c(C(F)(F)F)cc(Cl)cn23)c(S)cc1Cl	> 100 µM	> 100 µM	> 100 µM	> 100 µM	> 100 µM	> 100 µM	> 100 µM	> 100 µM	> 100 µM	> 100 µM	–	–
Cc1ccc(C(=O)N(C(C)C)C(C)C)cc1N=NN(C)C	> 100 µM	> 100 µM	> 100 µM	> 100 µM	> 100 µM	> 100 µM	43.2 µM	> 100 µM	> 100 µM	> 100 µM	–	–
CCOC(=O)c1ccc2nc(NC(=O)COC(=O)CSc3nc(C)cc(C)n3)sc2c1	> 100 µM	> 100 µM	33.9 µM	> 100 µM	> 100 µM	> 100 µM	> 100 µM	> 100 µM	> 100 µM	> 100 µM	–	–
CCOC(=O)c1nc2c3c(ncn2n1)Oc1c(c(-c2ccccc2)nn1-c1ccccc1)C3c1ccc(Cl)cc1 (centres undefined)	> 100 µM	> 100 µM	> 100 µM	> 100 µM	> 100 µM	> 100 µM	> 100 µM	> 100 µM	> 100 µM	> 100 µM	–	–
COc1ccc(/C=C/c2cc(O)cc(OC)c2)cc1	> 100 µM	> 100 µM	> 100 µM	> 100 µM	> 100 µM	> 100 µM	> 100 µM	> 100 µM	> 100 µM	> 100 µM	–	–
OCC1OC(n2cnc3cccnc32)CC1O (centres undefined)	> 100 µM	> 100 µM	> 100 µM	> 100 µM	> 100 µM	> 100 µM	> 100 µM	> 100 µM	> 100 µM	> 100 µM	–	–
CCCCC[C@@H]1OCO[C@@]2(C)/C=C(C)/C=C/C(=O)O[C@H]([C@@H](C)[C@@H](O)[C@H](C)[C@@]3(O)C[C@@H](O[C@H]4C[C@@H](O)[C@H](O)[C@@H](C)O4)[C@H](C)[C@@H](C)O3)[C@@H](OC)/C=C/C=C(\C)C[C@@H]1[C@@H]2O (stereo in doubt)	2.69 µM	< 0.005 µM	0.0587 µM	< 0.005 µM	0.609 µM	7.9 µM	7.46 µM	5.3 µM	7.38 µM	0.0992 µM	–	–
C/C(=N\NC(N)=O)C(CN1CCCCC1)C(c1ccccc1)c1c(O)c2ccccc2oc1=O (centres undefined)	> 100 µM	> 100 µM	> 72.9 µM	> 100 µM	> 100 µM	> 100 µM	> 100 µM	> 100 µM	> 100 µM	> 100 µM	> 100 µM	21.6 µM
